Laboratory results published in PubChem BioAssay AID248 (DTP/NCI, 2004).
“And” between values parts separate entries of the source, which are not always exact repeats. Equal entries are not always repeated. Inconclusive results and toxic doses are left out. No stated cut-off is given here; in the data, active means T/C of 150% or more; inactive means T/C below 125%.

Tested on: L1210 leukemia ip in BDF1 mice, survival T/C
Assay: NCI In Vivo Anticancer Drug Screen. Data for tumor model L1210 Leukemia (intraperitoneal) in B6D2F1 (BDF1) mice
Details: endpoint: mean survival time, higher = longer survival
In short: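 Value reflects the ratio of survival in compound-treated mice to survival in vehicle-treated controls, with both groups carrying the same transplanted tumor.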

[1] = dose: 25.0 mg/kg/injection, schedule: Q01DX009 (ip), vehicle: saline
[2] = dose: 50.0 mg/kg/injection, schedule: Q01DX009 (ip), vehicle: saline
[3] = dose: 100.0 mg/kg/injection, schedule: Q01DX009 (ip), vehicle: saline
[4] = dose: 200.0 mg/kg/injection, schedule: Q01DX009 (ip), vehicle: saline
[5] = dose: 400.0 mg/kg/injection, schedule: Q01DX009 (ip), vehicle: saline
[6] = dose: 25.0 mg/kg/injection, schedule: Q04DX002 (ip), vehicle: saline with Tween-80
[7] = dose: 50.0 mg/kg/injection, schedule: Q04DX002 (ip), vehicle: saline with Tween-80
[8] = dose: 100.0 mg/kg/injection, schedule: Q04DX003 (ip), vehicle: Klucel (hydroxypropylcellulose) (HPC)
[9] = dose: 200.0 mg/kg/injection, schedule: Q04DX003 (ip), vehicle: Klucel (hydroxypropylcellulose) (HPC)
[10] = dose: 100.0 mg/kg/injection, schedule: Q01DX001 (ip), vehicle: carboxymethylcellulose (CMC)
[11] = dose: 200.0 mg/kg/injection, schedule: Q01DX001 (ip), vehicle: carboxymethylcellulose (CMC)
[12] = dose: 400.0 mg/kg/injection, schedule: Q01DX001 (ip), vehicle: carboxymethylcellulose (CMC)
[13] = dose: 100.0 mg/kg/injection, schedule: Q01DX001 (ip), vehicle: saline
[14] = dose: 200.0 mg/kg/injection, schedule: Q01DX001 (ip), vehicle: saline
[15] = dose: 400.0 mg/kg/injection, schedule: Q01DX001 (ip), vehicle: saline
[16] = dose: 100.0 mg/kg/injection, schedule: Q04DX003 (ip), vehicle: saline
[17] = dose: 200.0 mg/kg/injection, schedule: Q04DX003 (ip), vehicle: saline
[18] = dose: 400.0 mg/kg/injection, schedule: Q04DX003 (ip), vehicle: Klucel (hydroxypropylcellulose) (HPC)

Measured: T/C

COC(=O)c1c(C)ccc2c(O)c3c(cc12)C(=O)c1c2c(cc(O)c1C3=O)C1(C)OC(C)(O2)C(O)C(N(C)C)C1O (stereo not given)
inactive: [1] 96 % of control | [2] 96 % of control | [3] 104 % of control | [4] 98 % of control | [5] 102 % of control

O=N[O-].O=N[O-].O=N[O-].O=N[O-].O=N[O-].O=N[O-].[Co+3].[Co].[NH2-].[NH2-].[NH2-].[NH2-].[NH2-].[NH2-]
inactive: [6] 102 % of control | [7] 115 % of control

NC(=O)COc1ccccc1Cl
inactive: dose: 50.0 mg/kg/injection, schedule: Q04DX003 (ip), vehicle: Klucel (hydroxypropylcellulose) (HPC) 102 % of control | [8] 94 % of control | [9] 93 % of control

CCc1ccc(N=Nc2c(F)c(F)c(N)c(F)c2F)cc1
inactive: [10] 100 % of control | [11] 95 % of control | [12] 102 % of control

BrC1(Br)C2CCCCC21 (stereo not given)
inactive: dose: 100.0 mg/kg/injection, schedule: Q04DX003 (ip), vehicle: acetone 90 % of control | dose: 200.0 mg/kg/injection, schedule: Q04DX003 (ip), vehicle: acetone 98 % of control and 90 % of control

COC(=O)C1CC(NC(C)=O)C(OC(C)=O)C1OC(C)=O (stereo not given)
inactive: [13] 94 % of control | [14] 94 % of control | [15] 104 % of control

CNCCOC(=O)c1cc([N+](=O)[O-])c(C)s1
inactive: [13] 94 % of control | [14] 103 % of control | [15] 100 % of control

COc1cc(C(O)C(=O)O)c([N+](=O)[O-])cc1OC (stereo not given)
inactive: [13] 96 % of control | [14] 91 % of control | [15] 91 % of control

CCCCCCCCCCCCCCCC[N+]1(C)CCC[N+](C)(CCCCCCCCCCCCCCCC)CC1 (stereo not given)
inactive: dose: 100.0 mg/kg/injection, schedule: Q01DX001 (ip), vehicle: other 111 % of control and 90 % of control | dose: 100.0 mg/kg/injection, schedule: Q04DX002 (ip), vehicle: other 94 % of control and 106 % of control | dose: 200.0 mg/kg/injection, schedule: Q01DX001 (ip), vehicle: other 96 % of control and 90 % of control | dose: 200.0 mg/kg/injection, schedule: Q04DX002 (ip), vehicle: other 97 % of control and 110 % of control | dose: 400.0 mg/kg/injection, schedule: Q01DX001 (ip), vehicle: other 96 % of control and 90 % of control | dose: 400.0 mg/kg/injection, schedule: Q04DX002 (ip), vehicle: other 98 % of control and 106 % of control

CC(=O)[C@H]1CC[C@H]2[C@@H]3C[C@H](F)C4=CC(=O)CC[C@]4(C)[C@@]3(F)[C@@H](O)C[C@]12C
inactive: dose: 50.0 mg/kg/injection, schedule: Q01DX009 (sc), vehicle: steriod suspending solution 124 % of control | dose: 100.0 mg/kg/injection, schedule: Q01DX009 (sc), vehicle: steriod suspending solution 101 % of control | dose: 100.0 mg/kg/injection, schedule: Q04DX003 (sc), vehicle: steriod suspending solution 97 % of control | dose: 200.0 mg/kg/injection, schedule: Q01DX009 (sc), vehicle: steriod suspending solution 104 % of control | dose: 200.0 mg/kg/injection, schedule: Q04DX003 (sc), vehicle: steriod suspending solution 105 % of control | dose: 400.0 mg/kg/injection, schedule: Q04DX003 (sc), vehicle: steriod suspending solution 103 % of control

CC12CC3(C)CC(C)(C1)CC(NC(=O)N(CCF)N=O)(C2)C3
inactive: dose: 30.0 mg/kg/injection, schedule: Q01DX001 (ip), vehicle: other 113 % of control | dose: 40.0 mg/kg/injection, schedule: Q01DX001 (ip), vehicle: other 117 % of control | dose: 375.0 mg/kg/injection, schedule: Q01DX001 (ip), vehicle: other 87 % of control
active: dose: 187.0 mg/kg/injection, schedule: Q01DX001 (ip), vehicle: other 151 % of control

S=C(SSC(=S)N1CCOCC1)N1CCOCC1
inactive: dose: 100.0 mg/kg/injection, schedule: Q01DX001 (ip), vehicle: Klucel (hydroxypropylcellulose) (HPC) 88 % of control | [16] 93 % of control | dose: 200.0 mg/kg/injection, schedule: Q01DX001 (ip), vehicle: Klucel (hydroxypropylcellulose) (HPC) 101 % of control | [17] 101 % of control

CCNc1cc(Cl)c(C(=O)O)cc1[N+](=O)[O-]
inactive: [3] 116 % of control | [4] 103 % of control | [5] 95 % of control

COc1ccc(-c2ccccc2)cc1SCCC(=O)O
inactive: dose: 50.0 mg/kg/injection, schedule: Q01DX001 (ip), vehicle: carboxymethylcellulose (CMC) 114 % of control | [10] 101 % of control | [11] 97 % of control | [12] 95 % of control

CCOP(=S)(OCC)SCc1c(C)c(C)c(CSP(=S)(OCC)OCC)c(C)c1C
inactive: dose: 100.0 mg/kg/injection, schedule: Q01DX009 (ip), vehicle: Klucel (hydroxypropylcellulose) (HPC) 95 % of control | [8] 103 % of control | dose: 200.0 mg/kg/injection, schedule: Q01DX009 (ip), vehicle: Klucel (hydroxypropylcellulose) (HPC) 103 % of control | [9] 101 % of control | dose: 400.0 mg/kg/injection, schedule: Q01DX009 (ip), vehicle: Klucel (hydroxypropylcellulose) (HPC) 93 % of control | [18] 105 % of control

CCOC(=O)C(COS(=O)(=O)c1ccc(C)cc1)(COS(=O)(=O)c1ccc(C)cc1)C(=O)OCC
inactive: [3] 92 % of control | [8] 97 % of control | [4] 94 % of control | [9] 93 % of control | [18] 93 % of control

CC(C)CC(=O)Nc1ccccc1
inactive: [8] 105 % of control | dose: 100.0 mg/kg/injection, schedule: Q04DX003 (ip), vehicle: other 98 % of control | [9] 101 % of control | dose: 200.0 mg/kg/injection, schedule: Q04DX003 (ip), vehicle: other 98 % of control | [18] 89 % of control | dose: 400.0 mg/kg/injection, schedule: Q04DX003 (ip), vehicle: other 89 % of control

N#Cc1ccc([N+](=O)[O-])cc1O
inactive: dose: 50.0 mg/kg/injection, schedule: Q04DX003 (ip), vehicle: saline 96 % of control | [13] 98 % of control | [16] 95 % of control | [14] 104 % of control | [17] 96 % of control

N#C[CH2][Sn]([c]1ccccc1)([c]1ccccc1)[c]1ccccc1
inactive: dose: 12.5 mg/kg/injection, schedule: Q04DX002 (ip), vehicle: saline with Tween-80 100 % of control | [6] 96 % of control | [7] 93 % of control

CS(=O)(=O)C(=Cc1ccccc1Cl)S(C)(=O)=O
inactive: dose: 100.0 mg/kg/injection, schedule: Q01DX009 (ip), vehicle: saline with Tween-80 92 % of control | dose: 200.0 mg/kg/injection, schedule: Q01DX009 (ip), vehicle: saline with Tween-80 100 % of control | dose: 400.0 mg/kg/injection, schedule: Q01DX009 (ip), vehicle: saline with Tween-80 101 % of control

O=C(CC(O)(C(F)(F)F)C(F)(F)F)CC(O)(C(F)(F)F)C(F)(F)F
inactive: dose: 0.25 mg/kg/injection, schedule: Q01DX009 (ip), vehicle: other 111 % of control | dose: 0.5 mg/kg/injection, schedule: Q01DX009 (ip), vehicle: other 107 % of control and 88 % of control | dose: 1.0 mg/kg/injection, schedule: Q01DX009 (ip), vehicle: other 97 % of control | dose: 1.0 mg/kg/injection, schedule: Q04DX003 (ip), vehicle: other 94 % of control | dose: 1.25 mg/kg/injection, schedule: Q01DX009 (ip), vehicle: saline 95 % of control | dose: 2.0 mg/kg/injection, schedule: Q01DX009 (ip), vehicle: other 108 % of control | dose: 2.0 mg/kg/injection, schedule: Q04DX003 (ip), vehicle: other 87 % of control | dose: 2.5 mg/kg/injection, schedule: Q01DX009 (ip), vehicle: saline with Tween-80 102 % of control | dose: 2.5 mg/kg/injection, schedule: Q01DX009 (ip), vehicle: saline 104 % of control | dose: 3.13 mg/kg/injection, schedule: Q04DX003 (ip), vehicle: other 104 % of control | dose: 5.0 mg/kg/injection, schedule: Q01DX009 (ip), vehicle: saline with Tween-80 97 % of control | dose: 5.0 mg/kg/injection, schedule: Q01DX009 (ip), vehicle: saline 95 % of control

CC(C)N(CCCOC(=O)c1ccc(N)cc1)C(C)C
inactive: [1] 95 % of control | [2] 109 % of control | [3] 106 % of control | [16] 105 % of control
